Experimental data taken from patent US20230089867A1, “CYCLIC PENTAMER COMPOUNDS AS PROPROTEIN CONVERTASE SUBTILISIN/KEXIN TYPE 9 (PCSK9) INHIBITORS FOR THE TREATMENT OF METABOLIC DISORDER” (Novartis AG, priority 2018, published 2023).

Target: human PCSK9 (Homo sapiens, UniProt Q8NBP7)
Assay: PCSK9 ligand binding TR-FRET assay (interference with binding of human PCSK9 to human LDLR)
Details: for Max % inhibition: PCSK9 FRET assay, efficacy (Amax), 100% = 1 uM unlabeled human PCSK9, 0% = DMSO; for IC50: TR-FRET, human PCSK9 Alexa Fluor 647 / human LDLR extracellular domain-Europium Kryptate, read-out: PCSK9 FRET Assay IC50
Outline: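 Threefold compound dilutions were pre-incubated 30 min with PCSK9, after which 4 nM Europium Kryptate-tagged human LDLR ectodomain was added for a further 2 h.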

Sequence of human PCSK9 (Q8NBP7 153-692): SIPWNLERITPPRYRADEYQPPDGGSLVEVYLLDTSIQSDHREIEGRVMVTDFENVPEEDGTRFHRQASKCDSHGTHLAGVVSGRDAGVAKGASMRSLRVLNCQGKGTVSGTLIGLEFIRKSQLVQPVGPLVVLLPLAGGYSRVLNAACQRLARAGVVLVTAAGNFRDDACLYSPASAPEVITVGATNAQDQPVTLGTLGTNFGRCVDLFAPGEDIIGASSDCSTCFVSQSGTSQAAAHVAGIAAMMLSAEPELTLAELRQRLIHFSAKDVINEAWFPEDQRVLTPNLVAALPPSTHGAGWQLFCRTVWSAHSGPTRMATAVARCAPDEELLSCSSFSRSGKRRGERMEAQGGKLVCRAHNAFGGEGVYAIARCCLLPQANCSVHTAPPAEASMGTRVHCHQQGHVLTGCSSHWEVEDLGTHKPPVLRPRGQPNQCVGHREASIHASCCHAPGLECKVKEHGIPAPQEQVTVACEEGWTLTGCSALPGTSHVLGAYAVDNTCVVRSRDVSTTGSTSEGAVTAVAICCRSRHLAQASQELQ
Sequence of human PCSK9 (Q8NBP7 31-152 partner limits assumed): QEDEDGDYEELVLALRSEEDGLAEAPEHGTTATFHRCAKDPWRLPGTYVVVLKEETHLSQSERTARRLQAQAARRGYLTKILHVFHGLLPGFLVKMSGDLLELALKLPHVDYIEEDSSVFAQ

SMILES	Max % inhibition	IC50
COC[C@@H]1NC(=O)[C@H](C)N(Cc2ccc(Cl)cc2Oc2ccc(-c3cnc(CN(C)C)n3C)cc2)C(=O)C[C@@H](Cc2ccccc2)C(=O)N(C)[C@@H](C)CNC(=O)C[C@H](Cc2ccc(Cl)cc2)N(C)C1=O [Compound 126, (2S,5S,8S,13S,16R)-16-benzyl-1-(4-chloro-2-(4-(2-((dimethylamino)methyl)-1-methyl-1H-imidazol-5-yl)phenoxy)benzyl)-8-(4-chlorobenzyl)-5-(methoxymethyl)-2,7,13,14-tetramethyl-1,4,7,11,14-pentaazacyclooctadecane-3,6,10,15,18-pentaone]	101.12%	1.5 nM
COC[C@@H]1NC(=O)[C@H](C)N(Cc2ccc(Cl)cc2Oc2ccc(-n3cc(CN4CCCC4)nn3)cc2)C(=O)C[C@@H](Cc2ccccc2)C(=O)N(C)[C@@H](C)CNC(=O)C[C@H](Cc2ccc(Cl)cc2)N(C)C1=O [Compound 127, (2S,5S,8S,13S,16R)-16-benzyl-1-(4-chloro-2-(4-(4-(pyrrolidin-1-ylmethyl)-1H-1,2,3-triazol-1-yl)phenoxy)benzyl)-8-(4-chlorobenzyl)-5-(methoxymethyl)-2,7,13,14-tetramethyl-1,4,7,11,14-pentaazacyclooctadecane-3,6,10,15,18-pentaone]	55.01%	7.8 nM
COC[C@@H]1NC(=O)[C@H](C)N(Cc2ccc(Cl)cc2Oc2ccc(-n3cc(CN4CCCCC4)nn3)cc2)C(=O)C[C@@H](Cc2ccccc2)C(=O)N(C)[C@@H](C)CNC(=O)C[C@H](Cc2ccc(Cl)cc2)N(C)C1=O [Compound 128, (2S,5S,8S,13S,16R)-16-benzyl-1-(4-chloro-2-(4-(4-(piperidin-1-ylmethyl)-1H-1,2,3-triazol-1-yl)phenoxy)benzyl)-8-(4-chlorobenzyl)-5-(methoxymethyl)-2,7,13,14-tetramethyl-1,4,7,11,14-pentaazacyclooctadecane-3,6,10,15,18-pentaone]	51.35%	20.4 nM
COC[C@@H]1NC(=O)[C@H](C)N(Cc2ccc(Cl)cc2Oc2ccc(-c3nnc4n3CCN(C(=O)[C@@H]3CCNC3)C4)cc2)C(=O)C[C@@H](Cc2ccccc2)C(=O)N(C)[C@@H](C)CNC(=O)C[C@H](Cc2ccc(Cl)cc2)N(C)C1=O [Compound 129, (2S,5S,8S,13S,16R)-16-benzyl-1-(4-chloro-2-(4-(7-((R)-pyrrolidine-3-carbonyl)-5,6,7,8-tetrahydro-[1,2,4]triazolo[4,3-a]pyrazin-3-yl)phenoxy)benzyl)-8-(4-chlorobenzyl)-5-(methoxymethyl)-2,7,13,14-tetramethyl-1,4,7,11,14-pentaazacyclooctadecane-3,6,10,15,18-pentaone]	94.48%	6.3 nM
C[C@H]1CNC(=O)C[C@H](Cc2ccc(Cl)cc2)N(C)C(=O)[C@H](CO)NC(=O)[C@H](C)N(Cc2ccc(Cl)cc2Oc2ccc3c(c2)C(=O)N(C2CCN(C)CC2)C3)C(=O)C[C@@H](Cc2ccccc2)C(=O)N1C [Compound 130, (2S,5S,8S,13S,16R)-16-benzyl-1-(4-chloro-2-((2-(1-methylpiperidin-4-yl)-3-oxoisoindolin-5-yl)oxy)benzyl)-8-(4-chlorobenzyl)-5-(hydroxymethyl)-2,7,13,14-tetramethyl-1,4,7,11,14-pentaazacyclooctadecane-3,6,10,15,18-pentaone]	77.42%	20.3 nM
COC[C@@H]1NC(=O)[C@H](C)N(Cc2ccc(Cl)cc2Oc2ccc(-c3nnc4n3CCN(C(=O)[C@H]3CCNC3)C4)cc2)C(=O)C[C@@H](Cc2ccccc2)C(=O)N(C)[C@@H](C)CNC(=O)C[C@H](Cc2ccc(Cl)cc2)N(C)C1=O [Compound 131, (2S,5S,8S,13S,16R)-16-benzyl-1-(4-chloro-2-(4-(7-((S)-pyrrolidine-3-carbonyl)-5,6,7,8-tetrahydro-[1,2,4]triazolo[4,3-a]pyrazin-3-yl)phenoxy)benzyl)-8-(4-chlorobenzyl)-5-(methoxymethyl)-2,7,13,14-tetramethyl-1,4,7,11,14-pentaazacyclooctadecane-3,6,10,15,18-pentaone]	90.72%	9.9 nM
COC[C@@H]1NC(=O)[C@H](C)N(Cc2ccc(Cl)cc2Oc2ccc(-c3cnc4n3CCN(C(=O)C(C)C)C4)cc2)C(=O)C[C@@H](Cc2ccccc2)C(=O)N(C)[C@@H](C)CNC(=O)C[C@H](Cc2ccc(Cl)cc2)N(C)C1=O [Compound 132, (2S,5S,8S,13S,16R)-16-benzyl-1-(4-chloro-2-(4-(7-isobutyryl-5,6,7,8-tetrahydroimidazo[1,2-a]pyrazin-3-yl)phenoxy)benzyl)-8-(4-chlorobenzyl)-5-(methoxymethyl)-2,7,13,14-tetramethyl-1,4,7,11,14-pentaazacyclooctadecane-3,6,10,15,18-pentaone]	71.97%	7.3 nM
COC[C@@H]1NC(=O)[C@H](C)N(Cc2ccc(Cl)cc2Oc2ccc(-c3cnc4n3CCN(C(=O)C3CCOC3)C4)cc2)C(=O)C[C@@H](Cc2ccccc2)C(=O)N(C)[C@@H](C)CNC(=O)C[C@H](Cc2ccc(Cl)cc2)N(C)C1=O (stereo partly drawn) [Compound 133, (2S,5S,8S,13S,16R)-16-benzyl-1-(4-chloro-2-(4-(7-(tetrahydrofuran-3-carbonyl)-5,6,7,8-tetrahydroimidazo[1,2-a]pyrazin-3-yl)phenoxy)benzyl)-8-(4-chlorobenzyl)-5-(methoxymethyl)-2,7,13,14-tetramethyl-1,4,7,11,14-pentaazacyclooctadecane-3,6,10,15,18-pentaone]	93.15%	5.8 nM
COC[C@@H]1NC(=O)[C@H](C)N(Cc2ccc(Cl)cc2Oc2ccc(-n3nnc(CN(C)C)c3C)cc2)C(=O)C[C@@H](Cc2ccccc2)C(=O)N(C)[C@@H](C)CNC(=O)C[C@H](Cc2ccc(Cl)cc2)N(C)C1=O.O=CO [Compound 134, (2S,5S,8S,13S,16R)-16-benzyl-1-(4-chloro-2-(4-(4-((dimethylamino)methyl)-5-methyl-1H-1,2,3-triazol-1-yl)phenoxy)benzyl)-8-(4-chlorobenzyl)-5-(methoxymethyl)-2,7,13,14-tetramethyl-1,4,7,11,14-pentaazacyclooctadecane-3,6,10,15,18-pentaone formate]	98.77%	39.5 nM
COC[C@@H]1NC(=O)[C@H](C)N(Cc2ccc(Cl)cc2Oc2ccc(-c3cncc(C4CN(C)CCN4C)c3)cc2)C(=O)C[C@@H](Cc2ccccc2)C(=O)N(C)[C@@H](C)CNC(=O)C[C@H](Cc2ccc(Cl)cc2)N(C)C1=O (stereo partly drawn) [Compound 135, (2S,5S,8S,13S,16R)-16-benzyl-1-(4-chloro-2-(4-(5-(1,4-dimethylpiperazin-2-yl)pyridin-3-yl)phenoxy)benzyl)-8-(4-chlorobenzyl)-5-(methoxymethyl)-2,7,13,14-tetramethyl-1,4,7,11,14-pentaazacyclooctadecane-3,6,10,15,18-pentaone]	58.33%	9.4 nM
COC[C@@H]1NC(=O)[C@H](C)N(Cc2ccc(Cl)cc2Oc2ccc(-c3cncc(C4=CCNCC4)c3)cc2)C(=O)C[C@@H](Cc2ccccc2)C(=O)N(C)[C@@H](C)CNC(=O)C[C@H](Cc2ccc(Cl)cc2)N(C)C1=O [Compound 136, (2S,5S,8S,13S,16R)-16-benzyl-1-(4-chloro-2-(4-(1′,2′,3′,6′-tetrahydro-[3,4′-bipyridin]-5-yl)phenoxy)benzyl)-8-(4-chlorobenzyl)-5-(methoxymethyl)-2,7,13,14-tetramethyl-1,4,7,11,14-pentaazacyclooctadecane-3,6,10,15,18-pentaone]	96.16%	5 nM
COC[C@@H]1NC(=O)[C@H](C)N(Cc2ccc(Cl)cc2Oc2ccc(-c3cncc(C4CCNCC4)c3)cc2)C(=O)C[C@@H](Cc2ccccc2)C(=O)N(C)[C@@H](C)CNC(=O)C[C@H](Cc2ccc(Cl)cc2)N(C)C1=O [Compound 137, (2S,5S,8S,13S,16R)-16-benzyl-1-(4-chloro-2-(4-(5-(piperidin-4-yl)pyridin-3-yl)phenoxy)benzyl)-8-(4-chlorobenzyl)-5-(methoxymethyl)-2,7,13,14-tetramethyl-1,4,7,11,14-pentaazacyclooctadecane-3,6,10,15,18-pentaone]	90.76%	8.4 nM
COC[C@@H]1NC(=O)[C@H](C)N(Cc2ccc(Cl)cc2Oc2ccc(-c3cnc(CN4CCCC4)n3C)cc2)C(=O)C[C@@H](Cc2ccccc2)C(=O)N(C)[C@@H](C)CNC(=O)C[C@H](Cc2ccc(Cl)cc2)N(C)C1=O [Compound 138, (2S,5S,8S,13S,16R)-16-benzyl-1-(4-chloro-2-(4-(1-methyl-2-(pyrrolidin-1-ylmethyl)-1H-imidazol-5-yl)phenoxy)benzyl)-8-(4-chlorobenzyl)-5-(methoxymethyl)-2,7,13,14-tetramethyl-1,4,7,11,14-pentaazacyclooctadecane-3,6,10,15,18-pentaone]	98.02%	1.5 nM
C[C@H]1CNC(=O)C[C@H](Cc2ccc(Cl)cc2)N(C)C(=O)[C@H](CO)NC(=O)[C@H](C)N(Cc2ccc(Cl)cc2Oc2ccc3c(c2)C(=O)N(C2CCN(CC4CC4)CC2)C3)C(=O)C[C@@H](Cc2ccccc2)C(=O)N1C [Compound 139, (2S,5S,8S,13S,16R)-16-benzyl-1-(4-chloro-2-((2-(1-(cyclopropylmethyl)piperidin-4-yl)-3-oxoisoindolin-5-yl)oxy)benzyl)-8-(4-chlorobenzyl)-5-(hydroxymethyl)-2,7,13,14-tetramethyl-1,4,7,11,14-pentaazacyclooctadecane-3,6,10,15,18-pentaone]	65.69%	5.7 nM
COC[C@@H]1NC(=O)[C@H](C)N(Cc2ccc(Cl)cc2Oc2ccc(-c3cnc(CN(C)C)n3C)cc2)C(=O)CCC(=O)N(C)CCNC(=O)C[C@H](Cc2ccc(Cl)cc2)N(C)C1=O [Compound 141, (2S,5S,8S)-1-(4-chloro-2-(4-(2-((dimethylamino)methyl)-1-methyl-1H-imidazol-5-yl)phenoxy)benzyl)-8-(4-chlorobenzyl)-5-(methoxymethyl)-2,7,14-trimethyl-1,4,7,11,14-pentaazacyclooctadecane-3,6,10,15,18-pentaone]	102.37%	882 nM
